One data set relates to antibody #12019-P8. The data set is described as follows: Specificity / crossreactivity of the immunoassay with levetiracetam metabolite. Type of data set: binding, rabbit. Conditions: for % Cross Reactivity: 100 × apparent concentration of levetiracetam / concentration of crossreactant. The text has this:
Antibodies obtained using any of the disclosed techniques are screened or purified not only for their ability to react with levetiracetam, but for a low cross-reactivity with potential interfering substances. “Cross-reactivity” may be determined in a quantitative immunoassay by establishing a standard curve using known dilutions of the target analyte, levetiracetam. The standard curve is then used to calculate the apparent concentration of the interfering substance present in various known amounts in samples assayed under similar condition. The cross-reactivity can be calculated as the apparent concentration divided by the actual concentration multiplied by 100. A certain immunoassay for determining cross-reactivity is a homogeneous enzyme immunoassay using a wild type G6PDH as described in U.S. Pat. No. 3,817,837 or mutant G6PDH engineered to contain a cysteine per subunit as described in U.S. Pat. Nos. 6,033,890, 6,090,567 and 6,455,288. Furthermore, the cross-reactivity can be determined in the same type of immunoassay in which the antibody will ultimately be used.
(§1) The levetiracetam derivative antibodies and enzyme conjugates may be advantageously used in a homogeneous assay format to detect levetiracetam in samples. An enzyme immunoassay or ARK Assay, which is a homogeneous enzyme immunoassay experiment, was performed to test antibodies prepared as described in Example 22. The ARK Assay for levetiracetam was conducted using a liquid, ready-to-use, two-reagent kit. A clinical chemistry analyzer useful to set up the assay is HITACHI 917. The HITACHI 917 is an automated biochemistry analyzer used by medical laboratories to process biological fluid specimens, such as urine, cerebrospinal fluid, and most commonly, blood. Manufactured by Boehringer Mannheim, the HITACHI 917 is a commonly used routine chemical chemistry. Levetiracetam containing sample was incubated with antibody reagent followed by the addition of the enzyme conjugate reagent. The enzyme conjugate activity decreases upon binding to the antibody. […] The oxidation of G6P is coupled with the reduction of NAD to NADH, which was measured at 340 nm. The change in the absorbance at 340 nm was measured spectrophotometrically. The levetiracetam concentration in a specimen was measured in terms of G6PDH activity. The increase in the rate at 340 nm was due to the formation of NADH and is proportional to the enzyme conjugate activity. An assay calibration curve was generated using levetiracetam spiked into negative calibrator matrix. The assay rate increases with increasing the concentration of drug in the sample.
The major metabolic pathway of levetiracetam (24% of dose) is an enzymatic hydrolysis of the acetamide group. The metabolites have no known pharmacological activity and are renally excreted. To human serum negative for levetiracetam was added levetiracetam dissolved in methanol to achieve a concentration of concentration of 30 μg/mL of levetiracetam (FIG. 1(1)).
To a second sample was added 2-pyrrolidone-N-butyric acid dissolved in methanol to achieve a concentration of 150.0 μg/mL 2-pyrrolidone-N-butyric acid (FIG. 1(2)). To a third sample was added 30 μg/mL of levetiracetam plus 406.4 μg/mL 2-pyrrolidone-N-butyric acid (FIG. 1(2)). The samples were assayed on the HITACHI 917. The levetiracetam metabolite, 2-pyrrolidone-N-butyric acid was tested in the immunoassay for potential crossreactivity with Enzyme Conjugate Reagent #110607-D63-E containing conjugate (44-G6PDH) and Antibody Reagent #11341P4-6-Ab containing antibody #12019-P8.

Data set [1] concerns rabbit polyclonal antibody #12019-P8. The data set is described as follows: Homogeneous enzyme immunoassay (ARK Assay) calibration curve on HITACHI 917, conjugate (44-G6PDH). The class given is binding. The method, then: Rabbit polyclonal antibody #12019-P8 was used to measure a substantial change in enzyme activity, generate a calibration curve, and evaluate assay precision, accuracy and specificity. The antibody was added into the antibody diluent to prepare the antibody reagent. The antibody reagent consists of antibody as prepared above, buffer, stabilizers, preservatives, and the substrates for the enzyme conjugate nicotinamide adenine dinucleotide (NAM and glucose-6-phosphate. Enzyme conjugate comprising compound (44-G6PDH) G6PDH was added into the conjugate reagent to prepare the enzyme conjugate reagent. The enzyme conjugate reagent comprises the conjugate, buffer, stabilizers and preservatives. Enzyme conjugate (44-G6PDH) was used with rabbit polyclonal antibody #12019-P8 in examples below. This technique is generally applicable to produce polyclonal antibodies to levetiracetam derivatives and assess their utility.
as §1
Levetiracetam was dissolved in methanol to give a stock solution of 1000 μg/mL. Pooled human serum was aliquoted in 10 mL portions. Levetiracetam stock solution was added to the aliquots of human serum in preparing a series of known concentrations of levetiracetam calibrators ranging from 0 to 100 μg/mL. Similarly, Quality Control samples were prepared (15.0, 35.0 and 75.0 μg/mL). The antibody/substrate reagent #11341P4-6-Ab containing antibody ##12019-P8 was assayed with enzyme reagent #110607-D63-E containing conjugate (44-G6PDH). Calibration curves were generated on the HITACHI 917 automated clinical chemistry analyzer, as described in Example 23 by assaying each level in duplicate.

For data set [2] the following is noted: in vivo; cited from earlier work.

This is an account of results in patent US12203938B2, “Levetiracetam immunoassays” (ARK Diagnostics, Inc., priority 2008, dated 2025).

Take 2-pyrrolidone-N-butyric acid: the “Levetiracetam Result” value in the data set on antibody #12019-P8 (Concentration Tested 150.0 μg/mL in human serum) and in the data set with antibody #12019-P8 (Concentration Tested 406.4 μg/mL in human serum) was 0 µg/mL each time. For the same molecule, the “% Cross Reactivity” value in the data set on antibody #12019-P8 (Concentration Tested 150.0 μg/mL) and in the data set on antibody #12019-P8 (Concentration Tested 406.4 μg/mL) was 0% throughout. The “Crossreactivity of antibody #12019-P8 (in words)” value in the data set with antibody #12019-P8 (conjugate (44-G6PDH), HITACHI 917) is listed as “does not crossreact”.
For the molecule `CC[C@@H](C(N)=O)N1CCCC1=O` (single isomer, unassigned) [Levetiracetam], the “Reaction Rate (mA/min) Average of Duplicates” value amounted to 547.4 mA/min in data set [1] (levetiracetam calibrator 5.0 μg/mL in pooled human serum); 561.2 mA/min in data set [1] (levetiracetam calibrator 10.0 μg/mL in pooled human serum); 586.9 mA/min in data set [1] (levetiracetam calibrator 25.0 μg/mL in pooled human serum); 607.5 mA/min in data set [1] (levetiracetam calibrator 50.0 μg/mL in pooled human serum); 626.0 mA/min in data set [1] (levetiracetam calibrator 100.0 μg/mL in pooled human serum). For the same molecule, the “Major metabolic pathway: enzymatic hydrolysis of the acetamide group” value in data set [2] is on record as 24 % of dose. In the data set with antibody #12019-P8 (Concentration Tested 30.0 μg/mL in human serum), the “Levetiracetam Result” value stood at 29.9 µg/mL. Also, the “% Cross Reactivity” value with antibody #12019-P8 (Concentration Tested 30.0 μg/mL) is listed as 100%.
